Test results from PubChem BioAssay (NCI).
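At the GI50, growth is halved. At the TGI there is no net growth.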

Assays:
Assay in all cases: growth of human tumour cells (NCI), 384-well format
OVCAR-4 ovarian = tested on: OVCAR-4 ovarian
SK-MEL-5 melanoma = tested on: SK-MEL-5 melanoma
SF-295 CNS = tested on: SF-295 CNS
HOP-62 NSCLC = tested on: HOP-62 NSCLC
CAKI-1 renal = tested on: CAKI-1 renal
NCI-H23 lung = tested on: NCI-H23 lung
SK-MEL-28 melanoma = tested on: SK-MEL-28 melanoma
DU-145 prostate = tested on: DU-145 prostate
NCI-H226 lung = tested on: NCI-H226 lung
T-47D breast = tested on: T-47D breast
U251 glioblastoma = tested on: U251 glioblastoma
OVCAR-8 ovarian = tested on: OVCAR-8 ovarian
SF-268 CNS = tested on: SF-268 CNS
MOLT-4 leukemia = tested on: MOLT-4 leukemia
UACC-257 melanoma = tested on: UACC-257 melanoma
NCI-H460 NSCLC = tested on: NCI-H460 NSCLC
NCI-H322M lung = tested on: NCI-H322M lung
NCI/ADR-RES ovarian = tested on: NCI/ADR-RES ovarian
HL-60(TB) leukemia = tested on: HL-60(TB) leukemia
IGROV1 ovarian = tested on: IGROV1 ovarian
MCF7 breast = tested on: MCF7 breast
A498 renal = tested on: A498 renal
HCT-15 colon = tested on: HCT-15 colon
ACHN renal = tested on: ACHN renal
SNB-75 CNS = tested on: SNB-75 CNS
TK-10 renal = tested on: TK-10 renal
BT-549 breast = tested on: BT-549 breast
MDA-MB-468 breast = tested on: MDA-MB-468 breast
SF-539 CNS = tested on: SF-539 CNS
MALME-3M melanoma = tested on: MALME-3M melanoma
SW-620 colon = tested on: SW-620 colon
K-562 leukemia = tested on: K-562 leukemia
HCT-116 colon = tested on: HCT-116 colon
786-0 renal = tested on: 786-0 renal
MDA-MB-231 breast = tested on: MDA-MB-231 breast
A549 NSCLC = tested on: A549 NSCLC
OVCAR-3 ovarian = tested on: OVCAR-3 ovarian
HOP-92 NSCLC = tested on: HOP-92 NSCLC
EKVX NSCLC = tested on: EKVX NSCLC
M14 melanoma = tested on: M14 melanoma
NCI-H522 lung = tested on: NCI-H522 lung
SK-OV-3 ovarian = tested on: SK-OV-3 ovarian
COLO 205 colon = tested on: COLO 205 colon
UO-31 renal = tested on: UO-31 renal
MDA-MB-435 melanoma = tested on: MDA-MB-435 melanoma
SN12C renal = tested on: SN12C renal
KM12 colon = tested on: KM12 colon
HS 578T breast = tested on: HS 578T breast
RPMI-8226 leukemia = tested on: RPMI-8226 leukemia
PC-3 prostate = tested on: PC-3 prostate
HT29 colon = tested on: HT29 colon
SNB-19 CNS = tested on: SNB-19 CNS
CCRF-CEM leukemia = tested on: CCRF-CEM leukemia
LOX IMVI melanoma = tested on: LOX IMVI melanoma
SR leukemia = tested on: SR leukemia
RXF 393 renal = tested on: RXF 393 renal
HCC-2998 colon = tested on: HCC-2998 colon
UACC-62 melanoma = tested on: UACC-62 melanoma

CC(C)(O)CS(=O)(=O)Nc1ccc2c(c1)CCN(C(=O)COc1cccnc1)C2
GI50 (OVCAR-4 ovarian): 31.3 nM
TGI (OVCAR-4 ovarian): 78.2 nM
GI50 (SK-MEL-5 melanoma): 20.8 nM
TGI (SK-MEL-5 melanoma): 40.3 nM
GI50 (SF-295 CNS): 29.5 nM
TGI (SF-295 CNS): 74.7 nM
GI50 (HOP-62 NSCLC): 25 nM
TGI (HOP-62 NSCLC): 52.2 nM
GI50 (CAKI-1 renal): 20.4 nM
TGI (CAKI-1 renal): 37.9 nM
GI50 (NCI-H23 lung): 29.1 nM
TGI (NCI-H23 lung): 78.7 nM
GI50 (SK-MEL-28 melanoma): 22.8 nM
TGI (SK-MEL-28 melanoma): 43.4 nM
GI50 (DU-145 prostate): 22.6 nM
TGI (DU-145 prostate): 45.9 nM
GI50 (NCI-H226 lung): 871 nM
TGI (NCI-H226 lung): 26000 nM
GI50 (T-47D breast): < 10 nM
TGI (T-47D breast): < 10 nM
GI50 (U251 glioblastoma): < 10 nM
TGI (U251 glioblastoma): 12.8 nM
GI50 (OVCAR-8 ovarian): < 10 nM
TGI (OVCAR-8 ovarian): < 10 nM
GI50 (SF-268 CNS): 20 nM
TGI (SF-268 CNS): 35 nM
GI50 (MOLT-4 leukemia): < 10 nM
TGI (MOLT-4 leukemia): < 10 nM
GI50 (UACC-257 melanoma): 143 nM
TGI (UACC-257 melanoma): 590 nM
GI50 (NCI-H460 NSCLC): 239 nM
TGI (NCI-H460 NSCLC): 435 nM
GI50 (NCI-H322M lung): 10.9 nM
TGI (NCI-H322M lung): 38.9 nM
GI50 (NCI/ADR-RES ovarian): 145 nM
TGI (NCI/ADR-RES ovarian): 279 nM
GI50 (HL-60(TB) leukemia): < 10 nM
TGI (HL-60(TB) leukemia): < 10 nM
GI50 (IGROV1 ovarian): 19 nM
TGI (IGROV1 ovarian): 34.2 nM
GI50 (MCF7 breast): 23.1 nM
TGI (MCF7 breast): 48 nM
GI50 (A498 renal): 390 nM
TGI (A498 renal): 3610 nM
GI50 (HCT-15 colon): 33.9 nM
TGI (HCT-15 colon): 108 nM
GI50 (ACHN renal): 37 nM
TGI (ACHN renal): 127 nM
GI50 (SNB-75 CNS): 17.8 nM
TGI (SNB-75 CNS): 32.6 nM
GI50 (TK-10 renal): 32.3 nM
TGI (TK-10 renal): 92 nM
GI50 (BT-549 breast): 21.6 nM
TGI (BT-549 breast): 40.1 nM
GI50 (MDA-MB-468 breast): 21.7 nM
TGI (MDA-MB-468 breast): 39.7 nM
GI50 (SF-539 CNS): < 10 nM
TGI (SF-539 CNS): < 10 nM
GI50 (MALME-3M melanoma): 83.5 nM
TGI (MALME-3M melanoma): 258 nM
GI50 (SW-620 colon): < 10 nM
TGI (SW-620 colon): < 10 nM
GI50 (K-562 leukemia): < 10 nM
TGI (K-562 leukemia): 10.9 nM
GI50 (HCT-116 colon): < 10 nM
TGI (HCT-116 colon): < 10 nM
GI50 ([…]-0 renal): 18.6 nM
TGI (786-0 renal): 34 nM
GI50 (MDA-MB-231 breast): 43.5 nM
TGI (MDA-MB-231 breast): 135 nM
GI50 (A549 NSCLC): 234 nM
TGI (A549 NSCLC): 494 nM
GI50 (OVCAR-3 ovarian): < 10 nM
TGI (OVCAR-3 ovarian): 12.2 nM
GI50 (HOP-92 NSCLC): 121 nM
TGI (HOP-92 NSCLC): 320 nM
GI50 (EKVX NSCLC): 46.4 nM
TGI (EKVX NSCLC): 164 nM
GI50 (M14 melanoma): 19.1 nM
TGI (M14 melanoma): 33.6 nM
GI50 (NCI-H522 lung): < 10 nM
TGI (NCI-H522 lung): < 10 nM
GI50 (SK-OV-3 ovarian): 10 nM
TGI (SK-OV-3 ovarian): 23.6 nM
GI50 (COLO 205 colon): < 10 nM
TGI (COLO 205 colon): < 10 nM
GI50 (UO-31 renal): 19.5 nM
TGI (UO-31 renal): 35.7 nM
GI50 (MDA-MB-435 melanoma): 20 nM
TGI (MDA-MB-435 melanoma): 34.6 nM
GI50 (SN12C renal): < 10 nM
TGI (SN12C renal): < 10 nM
GI50 (KM12 colon): 17.3 nM
TGI (KM12 colon): 43.2 nM
GI50 (HS 578T breast): 17.3 nM
TGI (HS 578T breast): 32.4 nM
GI50 (RPMI-8226 leukemia): 43.6 nM
TGI (RPMI-8226 leukemia): 163 nM
GI50 (PC-3 prostate): 10.8 nM
TGI (PC-3 prostate): 23.2 nM
GI50 (HT29 colon): 36 nM
TGI (HT29 colon): 102 nM
GI50 (SNB-19 CNS): 14.9 nM
TGI (SNB-19 CNS): 29.6 nM
GI50 (CCRF-CEM leukemia): < 10 nM
TGI (CCRF-CEM leukemia): < 10 nM
GI50 (LOX IMVI melanoma): 33.1 nM
TGI (LOX IMVI melanoma): 170 nM
GI50 (SR leukemia): 29 nM
TGI (SR leukemia): 60.4 nM
GI50 (RXF 393 renal): 18.3 nM
TGI (RXF 393 renal): 35.6 nM
GI50 (HCC-2998 colon): 21.7 nM
TGI (HCC-2998 colon): 42.1 nM
GI50 (UACC-62 melanoma): 31.3 nM
TGI (UACC-62 melanoma): 74.9 nM
